According to PubChem BioAssay AID1963978 (Molecular Pharmacology Branch, DTP, NCI, 2024):

Tested on: 616215-338-R-J1-PDC spheroids with HUVEC/MSC, viability
Experiment: Anticancer human tumor 616215-338-R-J1-PDC patient-derived colon adenocarcinoma cell line growth inhibition [PI3K]
Conditions: for viability, T/C: stronger effect = lower value
Outline: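 High-throughput combination screen: PI3K inhibitors crossed with targeted small molecules on complex spheroids of tumor cells, HUVEC and MSCs at 37 degrees C, 5% CO2. Top concentration was at or near clinical Cmax (otherwise 10 microM), with half-log decrements.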

[1] = curve of first compound, second compound 0.0316 µM
[2] = curve of first compound, second compound 0.1 µM
[3] = curve of first compound, second compound 0.316 µM
[4] = curve of first compound, second compound 1 µM
[5] = curve of first compound, second compound 3.16 µM
[6] = curve of first compound, second compound 10 µM
[7] = second compound 0.0316 µM, first compound 0.0316 µM
[8] = second compound 0.0316 µM, first compound 0.1 µM
[9] = second compound 0.0316 µM, first compound 0.316 µM
[10] = second compound 0.0316 µM, first compound 1 µM
[11] = second compound 0.0316 µM, first compound 3.16 µM
[12] = second compound 0.0316 µM, first compound 10 µM
[13] = second compound 0.1 µM, first compound 0.0316 µM
[14] = second compound 0.1 µM, first compound 0.1 µM
[15] = second compound 0.1 µM, first compound 0.316 µM
[16] = second compound 0.1 µM, first compound 1 µM
[17] = second compound 0.1 µM, first compound 3.16 µM
[18] = second compound 0.1 µM, first compound 10 µM
[19] = second compound 0.316 µM, first compound 0.0316 µM
[20] = second compound 0.316 µM, first compound 0.1 µM
[21] = second compound 0.316 µM, first compound 0.316 µM
[22] = second compound 0.316 µM, first compound 1 µM
[23] = second compound 0.316 µM, first compound 3.16 µM
[24] = second compound 0.316 µM, first compound 10 µM
[25] = second compound 1 µM, first compound 0.0316 µM
[26] = second compound 1 µM, first compound 0.1 µM
[27] = second compound 1 µM, first compound 0.316 µM
[28] = second compound 1 µM, first compound 1 µM
[29] = second compound 1 µM, first compound 3.16 µM
[30] = second compound 1 µM, first compound 10 µM
[31] = second compound 3.16 µM, first compound 0.0316 µM
[32] = second compound 3.16 µM, first compound 0.1 µM
[33] = second compound 3.16 µM, first compound 0.316 µM
[34] = second compound 3.16 µM, first compound 1 µM
[35] = second compound 3.16 µM, first compound 3.16 µM
[36] = second compound 3.16 µM, first compound 10 µM
[37] = second compound 10 µM, first compound 0.0316 µM
[38] = second compound 10 µM, first compound 0.1 µM
[39] = second compound 10 µM, first compound 0.316 µM
[40] = second compound 10 µM, first compound 1 µM
[41] = second compound 10 µM, first compound 3.16 µM
[42] = second compound 10 µM, first compound 10 µM
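Further: spheroids exposed to agents for seven days before the viability read.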

Cn1ncnc1[C@H]1c2n[nH]c(=O)c3cc(F)cc(c23)N[C@@H]1c1ccc(F)cc1
viability, T/C (compound 0.000316 µM): 95% [middle of 4 runs] | viability, T/C (compound 0.001 µM): 97.2% [middle of 4 runs] | viability, T/C (compound 0.00316 µM): 100% [middle of 4 runs] | viability, T/C (compound 0.01 µM): 102% [middle of 4 runs] | viability, T/C (compound 0.0316 µM): 102% [middle of 4 runs] | viability, T/C (compound 0.1 µM): 94.5% [middle of 4 runs] | IC50 (curve of compound): > 0.1 µM

CC(C)NCC(C(=O)N1CCN(c2ncnc3c2C(C)CC3O)CC1)c1ccc(Cl)cc1 (stereo not drawn) + CC(Nc1ncnc2nc[nH]c12)c1cc2cccc(Cl)c2c(=O)n1-c1ccccc1
IC50 [1]: 4.16 µM | IC50 [2]: 3.77 µM | IC50 [3]: 4.74 µM | IC50 [4]: 5.08 µM | IC50 [5]: 4.13 µM | IC50 [6]: 3.54 µM | viability, T/C [7]: 91.7% | viability, T/C [8]: 93.4% | viability, T/C [9]: 94.4% | viability, T/C [10]: 87.2% | viability, T/C [11]: 57.9% | viability, T/C [12]: 24.9% | viability, T/C [13]: 103% | viability, T/C [14]: 86.7% | viability, T/C [15]: 91% | viability, T/C [16]: 94.2% | viability, T/C [17]: 54.8% | viability, T/C [18]: 23.5% | viability, T/C [19]: 90.5% | viability, T/C [20]: 95% | viability, T/C [21]: 83.7% | viability, T/C [22]: 94% | viability, T/C [23]: 65.2% | viability, T/C [24]: 21.9% | viability, T/C [25]: 90.3% | viability, T/C [26]: 90.8% | viability, T/C [27]: 101% | viability, T/C [28]: 109% | viability, T/C [29]: 67.2% | viability, T/C [30]: 25.4% | viability, T/C [31]: 89.2% | viability, T/C [32]: 101% | viability, T/C [33]: 99.8% | viability, T/C [34]: 79.9% | viability, T/C [35]: 58.4% | viability, T/C [36]: 26.2% | viability, T/C [37]: 105% | viability, T/C [38]: 104% | viability, T/C [39]: 100% | viability, T/C [40]: 91.7% | viability, T/C [41]: 52.2% | viability, T/C [42]: 27.8%

Cn1ncc(Cl)c1-c1cc(C(=O)NC(CN)Cc2cccc(F)c2)sc1Cl (stereo not drawn) + COc1c(OCCCN2CCOCC2)ccc2c3n(c(=NC(=O)c4cnc(N)nc4)nc12)CCN3
IC50 (curve of first compound, second compound 0.00316 µM): 2.98 µM | IC50 (curve of first compound, second compound 0.01 µM): 2.96 µM | IC50 [1]: 2.49 µM | IC50 [2]: 1.89 µM | IC50 [3]: < 0.0316 µM | IC50 [4]: < 0.0316 µM | viability, T/C (second compound 0.00316 µM, first compound 0.0316 µM): 95.1% | viability, T/C (second compound 0.00316 µM, first compound 0.1 µM): 90.2% | viability, T/C (second compound 0.00316 µM, first compound 0.316 µM): 91.7% | viability, T/C (second compound 0.00316 µM, first compound 1 µM): 99.6% | viability, T/C (second compound 0.00316 µM, first compound 3.16 µM): 47.6% | viability, T/C (second compound 0.00316 µM, first compound 10 µM): 16.6% | viability, T/C (second compound 0.01 µM, first compound 0.0316 µM): 108% | viability, T/C (second compound 0.01 µM, first compound 0.1 µM): 96.3% | viability, T/C (second compound 0.01 µM, first compound 0.316 µM): 94.6% | viability, T/C (second compound 0.01 µM, first compound 1 µM): 92.9% | viability, T/C (second compound 0.01 µM, first compound 3.16 µM): 47.3% | viability, T/C (second compound 0.01 µM, first compound 10 µM): 17.6% | viability, T/C [7]: 102% | viability, T/C [8]: 104% | viability, T/C [9]: 96.7% | viability, T/C [10]: 75.2% | viability, T/C [11]: 43.9% | viability, T/C [12]: 15.1% | viability, T/C [13]: 90.8% | viability, T/C [14]: 86.8% | viability, T/C [15]: 79.7% | viability, T/C [16]: 72.8% | viability, T/C [17]: 32.2% | viability, T/C [18]: 12.9% | viability, T/C [19]: 45% | viability, T/C [20]: 35% | viability, T/C [21]: 35.5% | viability, T/C [22]: 32% | viability, T/C [23]: 27.2% | viability, T/C [24]: 15.3% | viability, T/C [25]: 21.4% | viability, T/C [26]: 28.2% | viability, T/C [27]: 16.9% | viability, T/C [28]: 20.9% | viability, T/C [29]: 16.6% | viability, T/C [30]: 7.24%

Cn1ncc(Cl)c1-c1cc(C(=O)NC(CN)Cc2cccc(F)c2)sc1Cl (stereo not drawn) + CC(Nc1ncnc2nc[nH]c12)c1cc2cccc(Cl)c2c(=O)n1-c1ccccc1
IC50 [1]: 5.37 µM | IC50 [2]: 4.2 µM | IC50 [3]: 4.15 µM | IC50 [4]: 4.48 µM | IC50 [5]: 3.16 µM | IC50 [6]: 3.29 µM | viability, T/C [7]: 106% | viability, T/C [8]: 87.6% | viability, T/C [9]: 98% | viability, T/C [10]: 93.7% | viability, T/C [11]: 75.7% | viability, T/C [12]: 19.8% | viability, T/C [13]: 107% | viability, T/C [14]: 103% | viability, T/C [15]: 100% | viability, T/C [16]: 92% | viability, T/C [17]: 60.7% | viability, T/C [18]: 16.4% | viability, T/C [19]: 98.4% | viability, T/C [20]: 100% | viability, T/C [21]: 104% | viability, T/C [22]: 95% | viability, T/C [23]: 59.5% | viability, T/C [24]: 19.6% | viability, T/C [25]: 95.9% | viability, T/C [26]: 88.5% | viability, T/C [27]: 105% | viability, T/C [28]: 94.5% | viability, T/C [29]: 64% | viability, T/C [30]: 17.6% | viability, T/C [31]: 104% | viability, T/C [32]: 113% | viability, T/C [33]: 96.1% | viability, T/C [34]: 82.1% | viability, T/C [35]: 50% | viability, T/C [36]: 19.6% | viability, T/C [37]: 98.3% | viability, T/C [38]: 112% | viability, T/C [39]: 106% | viability, T/C [40]: 75.1% | viability, T/C [41]: 54.7% | viability, T/C [42]: 20.6%
